Tests used:
[1] = target: laminin/nidogen binding (radioactively labeled nidogen to laminin P1-coated tubes); assay: coated-tube inhibition assay, sequential inhibition; design: species or system human
Protocol: (§1) The inhibitory activity of the affinity-purified antibodies can be identified by means of a coated-tube assay which measures the binding of radioactively labeled nidogen to (human placental) laminin P1-coated tubes in the presence of the antibodies.
(§2) Recombinantly produced human nidogen (35 μg, for description of the clone and culturing and purification conditions, see Mayer, U. et al. (1995) Eur. J. Biochem. 227:681-686) was dissolved in 250 μl of PBS, and 0.405 mCi (=15 Mbq) of Na iodide (^125I) solution (=1.55 μl, Nordion Europe), 10 μl of 0.5 M Na phosphate, pH 7.4, and 40 μg of chloramine T (N-chloro-4-toluenesulfonamide sodium salt, Merck) in 100 μl of 0.05 M Na phosphate, pH 7.4, were added to the solution. The reaction took place for 60 seconds at room temperature and was stopped by adding a solution of 40 μg of Na metabisulfite (Riedel-de-Haen) in 100 μl of 0.05 M Na phosphate, pH 7.4. This addition was made in at most 30 seconds and 900 μl of 1% BSA (Sigma) in PBS were then added to the mixture. Free radioactivity and excess salts were separated off by means of molecular sieve chromatography using a PD 10 column (Pharmacia). The iodinated nidogen, which was eluted in PBS, was pooled and diluted with 1% BSA/0.05 M Na phosphate/0.01% Na azide, pH 7.4, such that a concentration of 50 ng/ml was obtained. […]
Inhibition assay using “laminin-mimetic” structures (sequential inhibition) 200 μl of iodinated nidogen (approx. 10 ng, approx. 40,000 counts per min) and 200 μl of the inhibitor (e.g. peptides which can be derived from the laminin γ1 III 4 domain) or standards (laminin γ1 III 3-5) were shaken in a reaction vessel at room temperature. […] Finally, the solution was tipped out and the tubes were washed twice with 1 ml of PBS/0.04% Tween 20, after which the bound radioactivity (nidogen) was measured in a gamma counter. The quantity of bound nidogen in the solutions containing inhibitor was related to that of the nidogen when no inhibitor was added. […]

[2] = target: laminin/nidogen binding (radioactively labeled nidogen to laminin P1-coated tubes); assay: coated-tube inhibition assay, simultaneous inhibition; design: species or system human; conditions: simultaneous assay type
Protocol: as §1, §2
Target sequence in this assay (P11047 773-934 limits assumed, one chain of several): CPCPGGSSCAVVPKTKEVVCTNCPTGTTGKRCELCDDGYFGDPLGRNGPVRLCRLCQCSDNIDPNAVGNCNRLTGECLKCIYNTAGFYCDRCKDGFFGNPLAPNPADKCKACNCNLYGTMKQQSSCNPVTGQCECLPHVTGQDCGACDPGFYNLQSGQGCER

laminin P1 = assay: BIAcore binding kinetics on immobilized laminin P1; conditions: 20 μg/ml; matrix with 4000 RU laminin P1
Sequence of laminin P1 (P11047 773-934 limits assumed): as the sequence (P11047 773-934 limits assumed, one chain of several) above
Source text: Biospecific interactions can be monitored on-line using the BIAcore® system from Pharmacia Biosensor. The principle of the measurement is based on an optical phenomenon (surface plasmon resonance) which is affected by the mass which is bound on a gold film. Expressed in simple terms, the system is miniaturized affinity chromatography on a gold sensor surface. The quantity of specifically bound ligand can be depicted visually in the form of a resonance signal (Chaiken, I. et al. (1992) Anal. Biochem. 201:197-201; Karisson, R. et al. (1992) in: Structure of Antigens; (Ed.: van Regenmortel). pp. 127-148; CRC Press, Boca Raton, Fla.)
Laminin P1 was immobilized, at a concentration of 200 μg/ml in 10 mM Na acetate, pH 4.0, on the sensor chip in accordance with the instructions in the user manual. A matrix containing 4000 RU of bound laminin P1 is obtained. A double impulse of in each case 4 μl of 100 mM HCl can be carried out in order to regenerate the affinity matrix.
The fact that it was still not possible to observe any transition to the equilibrium state after 1400 seconds can be an expression of the fact that the specific peptide sequence of laminin P1 which is responsible for binding nidogen was readily available to the antibodies. The antibodies bound to this sequence irrespective of whether it was in the biologically active conformation or in a different conformation. […]

[3] = sequential assay type, read-out: IC50% inhibition of laminin/nidogen binding

## DNIDPNAVGNL [(1), peptide used for immunization]
[1]; in the assay described here, shortened incubation times, variant not stated, read-out: IC50%
  IC50: 60 µM
[1]; [3]
  IC50: 60 µM
[2]
  IC50: 60 µM

## DNIDPNAVGNLKCIYNTAGFYCDR [(2), peptide used for immunization]
[1]; [3]
  IC50: 20 µM
[2]
  IC50: 20 µM

B1: nidogen: recombinantly produced human nidogen, 160 kDa glycoprotein (protein, UniProt P14543 29-1247, looked up)
Nidogen-1: LSRQELFPFGPGQGDLELEDGDDFVSPALELSGALRFYDRSDIDAVYVTTNGIIATSEPPAKESHPGLFPPTFGAVAPFLADLDTTDGLGKVYYREDLSPSITQRAAECVHRGFPEISFQPSSAVVVTWESVAPYQGPSRDPDQKGKRNTFQAVLASSDSSSYAIFLYPEDGLQFHTTFSKKENNQVPAVVAFSQGSVGFLWKSNGAYNIFANDRESVENLAKSSNSGQQGVWVFEIGSPATTNGVVPADVILGTEDGAEYDDEDEDYDLATTRLGLEDVGTTPFSYKALRRGGADTYSVPSVLSPRRAATERPLGPPTERTRSFQLAVETFHQQHPQVIDVDEVEETGVVFSYNTDSRQTCANNRHQCSVHAECRDYATGFCCSCVAGYTGNGRQCVAEGSPQRVNGKVKGRIFVGSSQVPIVFENTDLHSYVVMNHGRSYTAISTIPETVGYSLLPLAPVGGIIGWMFAVEQDGFKNGFSITGGEFTRQAEVTFVGHPGNLVIKQRFSGIDEHGHLTIDTELEGRVPQIPFGSSVHIEPYTELYHYSTSVITSSSTREYTVTEPERDGASPSRIYTYQWRQTITFQECVHDDSRPALPSTQQLSVDSVFVLYNQEEKILRYALSNSIGPVREGSPDALQNPCYIGTHGCDTNAACRPGPRTQFTCECSIGFRGDGRTCYDIDECSEQPSVCGSHTICNNHPGTFRCECVEGYQFSDEGTCVAVVDQRPINYCETGLHNCDIPQRAQCIYTGGSSYTCSCLPGFSGDGQACQDVDECQPSRCHPDAFCYNTPGSFTCQCKPGYQGDGFRCVPGEVEKTRCQHEREHILGAAGATDPQRPIPPGLFVPECDAHGHYAPTQCHGSTGYCWCVDRDGREVEGTRTRPGMTPPCLSTVAPPIHQGPAVPTAVIPLPPGTHLLFAQTGKIERLPLEGNTMRKTEAKAFLHVPAKVIIGLAFDCVDKMVYWTDITEPSIGRASLHGGEPTTIIRQDLGSPEGIAVDHLGRNIFWTDSNLDRIEVAKLDGTQRRVLFETDLVNPRGIVTDSVRGNLYWTDWNRDNPKIETSYMDGTNRRILVQDDLGLPNGLTFDAFSSQLCWVDAGTNRAECLNPSQPSRRKALEGLQYPFAVTSYGKNLYFTDWKMNSVVALDLAISKETDAFQPHKQTRLYGITTALSQCPQGHNYCSVNNGGCTHLCLATPGSRTCRCPDNTLGVDCIEQK
Laminin P1
  bound amount at transition to the saturation phase: 600 RU
